Experiment [1] deals with female mosquito Culex pipiens antenna. Briefly: GC-EAD antennal response, Culex pipiens. Conditions: female Culex pipiens antennae; about 100 ng of each compound; responses weak, but repeatable; FIGS. 7 and 8. The method, then:
The GC-EAD responses of the female mosquito Culex pipiens antenna were tested on a synthetic mixture of 1-octen-3-ol, and two sesquiterpene hydrocarbons, β-caryophyllene and isocaryophyllene, with about 100 ng of each compound in the mixture.
The GC-EAD responses of the female mosquito Culex pipiens antenna were tested on a synthetic mixture of 1-octen-3-ol, and representative sesquiterpene hydrocarbons and derivatives including (+)-longipinene, (−)-isolongifolene, (+)-longifolene, β-caryophyllene, and isolongifolenone, with about 100 ng of each compound in the mixture.
Antennal responses were weak, but repeatable, thus are considered to be true responses.
The following procedures were employed to test the EAD response of an insect antenna to a repellent compound. The GC-EAD technique provides an efficient tool for screening behaviorally active repellents. Several synthetic mixtures of potential insect repellent candidates, mostly sesquiterpene hydrocarbons and derivatives, were analyzed in splitless mode using a Varian CP-3800 GC equipped with a polar column (Innowax; 1.0 μm film thickness, 30 m×0.53 mm ID; J & W Scientific), and a 1:1 effluent splitter that allowed simultaneous flame ionization detection (FID) and EAD of the separated volatile compounds. Helium was used as the carrier gas, and the injector temperature was 220° C. The column temperature was 50° C. for 2 min, rising to 240° C. at 10° C./min, then held for 10 min. The outlet for the EAD was held in a humidified air stream flowing at 0.5 liter/min. over an antennal preparation. A glass capillary indifferent electrode filled with Beadle-Ephrussi Ringer, and grounded via a silver wire, was inserted into the severed insect's head with the antennae. A similar recording electrode connected to a high-impedance DC amplifier with automatic baseline drift compensation was placed in contact with the distal end of one antenna (Zhang et al., Chemoecology, 10:69-80 (2000)). The antennal signals were stored and analyzed on a PC equipped with a serial IDAC interface box and the program EAD ver. 2.5 (Syntech, Hilversum, The Netherlands). The compound 1-octen-3-ol (known attractant for many flies and mosquitoes) was included in most of the synthetic mixtures, as a positive control. The results of the experiments are shown in FIGS. 1-10 and described above.

In experiment [2] the test system is Aedes aegypti. The experiment in a line: K&D module behavioral bioassay (topical repellency, biting). It is filed as in vivo. Summed up: (§1)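 In vitro six-cell K&D module over 38 °C CPDA+ATP artificial blood under collagen membrane, topped by nylon organdy treated with five ethanol dilutions of test chemical (ethanol blank; DEET ca. 10 μg/cm^2 positive control). Five starved (24 h) 5–10 d-old females per cell. Biting counted over 3 min, three replicates per chemical and species.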

Experiment [3] has as its system Anopheles stephensi. The description is as above. Format: in vivo. Summed up: as §1
In experiment [4] the test system is Aedes Aegypti, Anopheles stephensi and the sand fly P. papatasi. Briefly: Y-tube bioassay, statements pooled for the three species. Format: in vivo, Aedes aegypti; Anopheles stephensi; Phlebotomus papatasi. Conditions: clove oil ca. 10 mg/day, patchouli oil 15 mg/d, sesquiterpenes 1 to 35 mg/d release. The method, then:
Aegypti and An. stephensi, and one species of sand fly, P. papatasi. Both the mosquitoes and the sand flies used in the study were from colonies maintained at the Walter Reed Army Institute of Research, Department of Entomology, Silver Spring, Md. This Y-tube bioassay system, equipped with CO2-enriched air (ca. 1 l/min) as an attractant, was made from three clear acrylic tubes (4″ diameter; 12″ length) with symmetrical 120° angles among the three tube arms; and a screen butterfly valve on the top part of the bottom releasing tube. These spatial repellency tests were carried out during 8:00 am-12:00 pm (photophase) time period for Ae. aegypti and 1:00-5:00 pm (shifted scotophase) time period for the species of night-flying mosquitoes and sand fly in a temperature and humidity controlled testing room (23-25° C. and 20-40% RH). Female mosquitoes or sand flies were stored at ˜25-26° C., 50-89% RH, 12:12 hr. (L/D), fed with 10% sucrose solution before testing. The candidate chemical (individual or mixture) dispenser and a blank control were placed in the upper left or right arm of the Y-tube before releasing 25-40, 6 to 10 day-old female mosquitoes (or 3 to 10 day-old sand flies) into the bottom tube via a small hole. After a 30-60 sec acclimation period, the butterfly screen valve (door) on the top of the bottom tube was opened. After 10 min., the valve was closed and the numbers of mosquitoes or sand flies in each arm (including the bottom tube) were counted. In order to minimize the position effect, the same experiment was repeated once with the treatment and blank control arms shifted using a new (clean) Y-tube olfactometer and a new batch of mosquitoes/sand flies. Data from these two replicates were pooled for χ2 goodness of fit test (df=1) between the treatment and blank control.

The mark [5] stands for this setting: 10 μg/cm^2, DEET values are the positive control run with the chemical.

`C=C1C2CCC3[C@H]2C(C)(C)CCC[C@]13C` (single isomer, unassigned; (+)) [(+)-Longifolene]: the GC-EAD antennal activity entry in experiment [1] was “active”. The “% of biting (±SE) (N = 3)” value in experiment [2] (setting [5]) was found to be 53 ± 7c %; in experiment [2] (100 μg/cm^2), 33 ± 13bc %; in experiment [2] (500 μg/cm^2), 0 ± 0a %; in experiment [2] (1000 μg/cm^2), 0 ± 0a %; in experiment [3] (setting [5]) it was 53 ± 7c %; in experiment [3] (100 μg/cm^2) it was 33 ± 7bc %. For the same compound, the “% of biting (±SE) (N = 3)” value in experiment [3] (500 μg/cm^2) and in experiment [3] (1000 μg/cm^2) was 0 ± 0a % in each case. The “spatial repellency, in words” value in experiment [4] is recorded as “showed spatial repellency effects”.
`C=C1CC/C=C(/C)CC[C@@H]2[C@@H]1CC2(C)C` [Isocaryophyllene, isocaryophyllene]: the GC-EAD antennal activity result in experiment [1] is “active”. Besides, the “% of biting (±SE) (N = 3)” value in experiment [2] (setting [5]) was determined as 33 ± 7b %; in experiment [2] (100 μg/cm^2), 0 ± 0a %; in experiment [2] (500 μg/cm^2) it was 0 ± 0a %; in experiment [2] (1000 μg/cm^2), 0 ± 0a %; in experiment [3] (setting [5]), 33 ± 13b %; in experiment [3] (100 μg/cm^2), 7 ± 7a %. In addition, the “% of biting (±SE) (N = 3)” value in experiment [3] (500 μg/cm^2) and in experiment [3] (1000 μg/cm^2) was 0 ± 0a % throughout. In experiment [4], the “spatial repellency, in words” value is given as “showed spatial repellency effects”.
For the compound `C=C1CC/C=C(\C)CC[C@@H]2[C@@H]1CC2(C)C` [β-Caryophyllene, β-caryophyllene], the GC-EAD antennal activity entry in experiment [1] is recorded as “active”. Moreover, the “% of biting (±SE) (N = 3)” value in experiment [2] (setting [5]) worked out at 40 ± 12b %; in experiment [2] (100 μg/cm^2) it was 33 ± 24b %; in experiment [2] (500 μg/cm^2) it was 0 ± 0a %; in experiment [2] (1000 μg/cm^2), 0 ± 0a %; in experiment [3] (setting [5]) it was 47 ± 18bc %; in experiment [3] (100 μg/cm^2), 40 ± 12bc %. The entries for the “% of biting (±SE) (N = 3)” value in experiment [3] (500 μg/cm^2) and in experiment [3] (1000 μg/cm^2) were 0 ± 0a % and 7 ± 7a %, respectively. The “spatial repellency, in words” value in experiment [4] was “showed spatial repellency effects”.

Values taken from patent US8057829B2, “Methods for repelling insects using sesquiterpene hydrocarbons and their derivatives” (Sterling International Inc., priority 2008, dated 2011).
